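Following 48 hours of exposure in 96-well plates, responses at five concentrations were used to interpolate endpoints linearly. Abbreviation: GI50, concentration required for 50% inhibition of growth. Definition used: TGI = concentration required for complete inhibition of growth.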
What was measured:
Experiment in all cases: NCI anticancer screen, dose series, 48 h
COLO 205 colon = test system: COLO 205 colon
HCC-2998 colon = test system: HCC-2998 colon
HCT-116 colon = test system: HCT-116 colon
MALME-3M melanoma = test system: MALME-3M melanoma
MDA-MB-231 breast = test system: MDA-MB-231 breast
NCI-H23 lung = test system: NCI-H23 lung
OVCAR-4 ovarian = test system: OVCAR-4 ovarian
OVCAR-5 ovarian = test system: OVCAR-5 ovarian
SF-268 CNS = test system: SF-268 CNS
SW-620 colon = test system: SW-620 colon

COc1cccc(Cn2c(-c3nonc3N)nc3ccccc32)c1
GI50 (COLO 205 colon): 0.393 µM | TGI (COLO 205 colon): 10.1 µM | GI50 (HCC-2998 colon): 1.47 µM | TGI (HCC-2998 colon): > 100 µM | GI50 (HCT-116 colon): 0.461 µM | TGI (HCT-116 colon): > 100 µM | GI50 (MALME-3M melanoma): 0.425 µM | TGI (MALME-3M melanoma): > 95.1 µM | GI50 (MDA-MB-231 breast): 0.879 µM | TGI (MDA-MB-231 breast): > 100 µM | GI50 (NCI-H23 lung): 0.717 µM | TGI (NCI-H23 lung): > 100 µM | GI50 (OVCAR-4 ovarian): 2.26 µM | TGI (OVCAR-4 ovarian): > 65.9 µM | GI50 (OVCAR-5 ovarian): 1.17 µM | TGI (OVCAR-5 ovarian): > 68 µM | GI50 (SF-268 CNS): 0.844 µM | TGI (SF-268 CNS): > 100 µM | GI50 (SW-620 colon): 0.372 µM | TGI (SW-620 colon): > 100 µM

C=CC(=O)N1C/C(=C\c2ccccc2)C(=O)/C(=C/c2ccccc2)C1
TGI (COLO 205 colon): 3.87 µM | TGI (HCC-2998 colon): 3.67 µM | GI50 (HCT-116 colon): 0.355 µM | TGI (HCT-116 colon): 0.397 µM | TGI (MALME-3M melanoma): 4.87 µM | TGI (MDA-MB-231 breast): 4.55 µM | TGI (NCI-H23 lung): 5.43 µM | TGI (OVCAR-4 ovarian): 6.6 µM | TGI (OVCAR-5 ovarian): 5.72 µM | TGI (SF-268 CNS): 5.61 µM | GI50 (SW-620 colon): 0.534 µM | TGI (SW-620 colon): 0.831 µM

O=C(CSc1nc2ccccc2nc1-c1ccccc1)Nc1ccc(Cl)cc1
GI50 (COLO 205 colon): > 100 µM | TGI (COLO 205 colon): > 100 µM | GI50 (HCC-2998 colon): 46.4 µM | TGI (HCC-2998 colon): > 100 µM | GI50 (HCT-116 colon): 5.24 µM | TGI (HCT-116 colon): 24 µM | GI50 (MALME-3M melanoma): 27.2 µM | TGI (MALME-3M melanoma): 78 µM | GI50 (MDA-MB-231 breast): 30.5 µM | TGI (MDA-MB-231 breast): > 100 µM | GI50 (NCI-H23 lung): 30.5 µM | TGI (NCI-H23 lung): > 100 µM | GI50 (OVCAR-4 ovarian): 13.6 µM | TGI (OVCAR-4 ovarian): > 100 µM | GI50 (OVCAR-5 ovarian): > 100 µM | TGI (OVCAR-5 ovarian): > 100 µM | GI50 (SF-268 CNS): 15.5 µM | TGI (SF-268 CNS): 51.3 µM | GI50 (SW-620 colon): 38.9 µM | TGI (SW-620 colon): > 100 µM

Sc1ccc2ccccc2c1CNCc1ccccc1
TGI (COLO 205 colon): 28.2 µM | TGI (HCC-2998 colon): > 100 µM | TGI (HCT-116 colon): 33.4 µM | TGI (MALME-3M melanoma): 78.5 µM | TGI (MDA-MB-231 breast): 43.9 µM | TGI (NCI-H23 lung): 59.7 µM | TGI (OVCAR-4 ovarian): 40.6 µM | TGI (OVCAR-5 ovarian): 34 µM | TGI (SF-268 CNS): 30.3 µM | TGI (SW-620 colon): > 100 µM

O=Nc1ccc(O)c2ccccc12
GI50 (COLO 205 colon): 1.93 µM | TGI (COLO 205 colon): 3.92 µM | GI50 (HCC-2998 colon): 3.31 µM | TGI (HCC-2998 colon): 11.3 µM | GI50 (HCT-116 colon): 1.17 µM | TGI (HCT-116 colon): 2.46 µM | GI50 (MALME-3M melanoma): 1.61 µM | TGI (MALME-3M melanoma): 3.62 µM | GI50 (MDA-MB-231 breast): 2.93 µM | TGI (MDA-MB-231 breast): 20.4 µM | GI50 (NCI-H23 lung): 1.45 µM | TGI (NCI-H23 lung): 4.17 µM | GI50 (OVCAR-4 ovarian): 1.17 µM | TGI (OVCAR-4 ovarian): 2.44 µM | GI50 (OVCAR-5 ovarian): 2.13 µM | TGI (OVCAR-5 ovarian): 4.21 µM | GI50 (SF-268 CNS): 2.29 µM | TGI (SF-268 CNS): 5.87 µM | GI50 (SW-620 colon): 1.82 µM | TGI (SW-620 colon): 3.6 µM

O=C1/C(=C\c2ccc(F)cc2)CN(C(=O)c2ccc([N+](=O)[O-])cc2)C/C1=C\c1ccc(F)cc1
GI50 (COLO 205 colon): 3.17 µM | TGI (COLO 205 colon): 12.7 µM | GI50 (HCC-2998 colon): 1.95 µM | TGI (HCC-2998 colon): 3.76 µM | GI50 (HCT-116 colon): 0.21 µM | TGI (HCT-116 colon): 0.448 µM | GI50 (MALME-3M melanoma): 8.22 µM | TGI (MALME-3M melanoma): 45.9 µM | GI50 (MDA-MB-231 breast): 2.38 µM | TGI (MDA-MB-231 breast): 7.92 µM | GI50 (NCI-H23 lung): 3.6 µM | TGI (NCI-H23 lung): 15.6 µM | GI50 (OVCAR-4 ovarian): 3.61 µM | TGI (OVCAR-4 ovarian): > 100 µM | GI50 (OVCAR-5 ovarian): 4.6 µM | TGI (OVCAR-5 ovarian): 49.5 µM | GI50 (SF-268 CNS): 3.41 µM | TGI (SF-268 CNS): > 100 µM | GI50 (SW-620 colon): 0.885 µM | TGI (SW-620 colon): 5.35 µM

COc1ccccc1-c1cc(/C=C2\C(=O)Nc3ncc(Br)cc32)cc(Br)c1O
GI50 (COLO 205 colon): 20.2 µM | TGI (COLO 205 colon): > 25 µM | GI50 (HCC-2998 colon): > 25 µM | TGI (HCC-2998 colon): > 25 µM | GI50 (HCT-116 colon): 10.2 µM | TGI (HCT-116 colon): > 25 µM | GI50 (MALME-3M melanoma): 16.4 µM | TGI (MALME-3M melanoma): > 25 µM | GI50 (MDA-MB-231 breast): 8.52 µM | TGI (MDA-MB-231 breast): > 25 µM | GI50 (NCI-H23 lung): 10.5 µM | TGI (NCI-H23 lung): > 25 µM | GI50 (OVCAR-4 ovarian): 8.96 µM | TGI (OVCAR-4 ovarian): > 25 µM | GI50 (OVCAR-5 ovarian): > 25 µM | TGI (OVCAR-5 ovarian): > 25 µM | GI50 (SF-268 CNS): 11.1 µM | TGI (SF-268 CNS): > 25 µM | GI50 (SW-620 colon): 19.4 µM | TGI (SW-620 colon): > 25 µM

C=C(C)[C@@H]1CC[C@]2(C(N)=O)CC[C@]3(C)[C@H](CC[C@@H]4[C@@]5(C)CC[C@H](O)C(C)(C)[C@@H]5CC[C@]43C)[C@@H]12
GI50 (COLO 205 colon): 3.63 µM | TGI (COLO 205 colon): 15 µM | GI50 (HCC-2998 colon): 3.96 µM | TGI (HCC-2998 colon): 12.9 µM | GI50 (HCT-116 colon): 1.97 µM | TGI (HCT-116 colon): 3.96 µM | GI50 (MALME-3M melanoma): 2.39 µM | TGI (MALME-3M melanoma): 8.15 µM | GI50 (MDA-MB-231 breast): 1.97 µM | TGI (MDA-MB-231 breast): 4.6 µM | GI50 (NCI-H23 lung): 2.26 µM | TGI (NCI-H23 lung): 5.21 µM | GI50 (OVCAR-4 ovarian): 3.54 µM | TGI (OVCAR-4 ovarian): 19.8 µM | GI50 (OVCAR-5 ovarian): 3.78 µM | TGI (OVCAR-5 ovarian): 16.5 µM | GI50 (SF-268 CNS): 4.34 µM | TGI (SF-268 CNS): > 100 µM | GI50 (SW-620 colon): 3.88 µM | TGI (SW-620 colon): 26.1 µM

Nc1ccccc1SC(CC(=O)c1ccccc1)c1ccc([N+](=O)[O-])cc1 (stereo not drawn)
GI50 (COLO 205 colon): 16.7 µM | TGI (COLO 205 colon): 31.2 µM | GI50 (HCC-2998 colon): 15.8 µM | TGI (HCC-2998 colon): 29.6 µM | GI50 (HCT-116 colon): 1.67 µM | TGI (HCT-116 colon): 3.16 µM | GI50 (MALME-3M melanoma): 15.3 µM | TGI (MALME-3M melanoma): 30.3 µM | GI50 (MDA-MB-231 breast): 11.8 µM | TGI (MDA-MB-231 breast): 24.1 µM | GI50 (NCI-H23 lung): 13.5 µM | TGI (NCI-H23 lung): 27.2 µM | GI50 (OVCAR-4 ovarian): 12.6 µM | TGI (OVCAR-4 ovarian): 25.9 µM | GI50 (OVCAR-5 ovarian): 16.6 µM | TGI (OVCAR-5 ovarian): 30.6 µM | GI50 (SF-268 CNS): 12.4 µM | TGI (SF-268 CNS): 25.8 µM | GI50 (SW-620 colon): 2.88 µM | TGI (SW-620 colon): 10.9 µM

CCNCCC1(CC)C(=O)NC(=O)NC1=O
TGI (COLO 205 colon): > 100 µM | GI50 (HCC-2998 colon): > 100 µM | TGI (HCC-2998 colon): > 100 µM | TGI (HCT-116 colon): > 100 µM | TGI (MALME-3M melanoma): > 100 µM | TGI (MDA-MB-231 breast): > 100 µM | TGI (NCI-H23 lung): > 100 µM | TGI (OVCAR-4 ovarian): > 100 µM | TGI (OVCAR-5 ovarian): > 100 µM | TGI (SF-268 CNS): > 100 µM | TGI (SW-620 colon): > 100 µM

COc1c2ccoc2cc2oc(=O)ccc12
TGI (COLO 205 colon): > 100 µM | TGI (HCC-2998 colon): > 100 µM | TGI (HCT-116 colon): > 100 µM | TGI (MALME-3M melanoma): > 100 µM | TGI (MDA-MB-231 breast): > 100 µM | TGI (NCI-H23 lung): > 100 µM | TGI (OVCAR-4 ovarian): > 100 µM | TGI (OVCAR-5 ovarian): > 100 µM | TGI (SF-268 CNS): > 100 µM | TGI (SW-620 colon): > 100 µM

O=c1[nH]cc(/C=N\Nc2ccccc2)c(=O)[nH]1
TGI (COLO 205 colon): > 100 µM | TGI (HCC-2998 colon): > 100 µM | TGI (HCT-116 colon): > 100 µM | TGI (MALME-3M melanoma): > 100 µM | TGI (MDA-MB-231 breast): > 100 µM | TGI (NCI-H23 lung): > 100 µM | TGI (OVCAR-4 ovarian): > 100 µM | TGI (OVCAR-5 ovarian): > 100 µM | TGI (SF-268 CNS): > 100 µM | TGI (SW-620 colon): > 100 µM

From PubChem BioAssay (NCI)
